For assay [1], the system named is human keratinocytes (HaCaT). Format: cell-based. The following applies: 24 h. On the procedure: The cytotoxicity of test compounds (IC50) was evaluated for human keratinocytes (HaCaT, ATCC) using classic MTT assay on 96-well plates. In this assay, a colorimetric determination of the cell metabolic activity was carried out. Specifically, the color intensity reflects the number of live cells that can be measured spectrophotometrically. […] A day after plating 500 cells per well, a series of concentrations (0.5–500 μg/mL) of the test compounds were added. Dimethyl sulfoxide (DMSO) was used as a control in cells at a final concentration of 1.0% (v/v), which was related to the maximal concentration of the solvent compounds used in the experiment. After 24 h of incubation with test compounds, a medium containing 1 mg/mL of MTT was added up to a final concentration of 0.5 mg/mL and subsequently incubated at 37 °C for 4 h. Then, the medium was aspirated and the formazan product was solubilized with DMSO. The background absorbance at 630 nm was subtracted from that at 570 nm for each well (Epoch, BioTek Instruments, Winooski, VT, USA). Six replicates were conducted for each concentration. All experiments were repeated at least twice and the resulting IC50 values were calculated with a GraFit 7 software (v. 7.0, Erithacus, Berkley, CA, USA).

Assay [2] has as its system A. baumannii ATCC BAA-1605. Type of assay: cell-based, Acinetobacter baumannii. The following applies: ATCC BAA-1605, 18 h. On the procedure: (§1) Examination of antimicrobial activity of the test compounds was conducted on reference strains of bacteria assigned to ESKAPE group of pathogens: Enterococcus faecium ATCC 700221, Klebsiella pneumoniae ATCC 700603, Acinetobacter baumannii ATCC BAA-1605, Pseudomonas aeruginosa ATCC 9027, Klebsiella aerogenes ATCC 13048 (formerly Enterobacter aerogenes) and reference strains of Staphylococcus aureus, namely: S. aureus ATCC 25923, S. aureus ATCC 6538, S. aureus ATCC 33591 (MRSA), S. aureus ATCC 9144 and S. aureus ATCC 12598. All the strains were stored at −80 °C in Roti®-Store cryo vials (Carl Roth GmbH, Karlsruhe, Germany) and before the tests were transferred into fresh Mueller-Hinton Medium (BioMaxima, Lublin, Poland) and incubated for 24 h at 37 °C. Subsequently, each bacterial inoculum was seeded on Mueller-Hinton Agar plates (BioMaxima) and incubated again for 24 h. The cultures prepared in this way were used in further antimicrobial assays and prepared as described above. The MIC values were determined by the broth microdilution method according to Clinical and Laboratory Standards Institute Protocol. For this purpose, initial inoculums of bacteria (0.5 × 10^5 colony forming unit (CFU)/mL) in Mueller–Hinton Broth were exposed to the ranging concentrations of compounds (0.5–256 µg/mL) and incubated for 18 h at 37 °C. The experiments were conducted on 96-well microtiter plates, with a final volume of 100 µL. Cell densities were adjusted spectrophotometrically (Multiskan™ GO Microplate Spectrophotometer, Thermo Scientific) at 600 nm. The MICs were taken as the lowest drug concentration at which a visible growth of microorganisms was inhibited. All experiments were conducted in triplicate and included positive (growth) and negative (sterility) controls.

The test system of another assay is P. aeruginosa ATCC 9027. Type of assay: cell-based, Pseudomonas aeruginosa. The settings on record: ATCC 9027, 18 h. On the procedure: as §1
Another assay has as its system S. aureus ATCC 12598. Type of assay: cell-based, Staphylococcus aureus. The following applies: ATCC 12598, 18 h. On the procedure:
as §1

For the next assay, the system named is S. aureus ATCC 6538. Type of assay: cell-based, Staphylococcus aureus. The settings on record: ATCC 6538, 18 h. On the procedure:
as §1

A further assay concerns S. aureus ATCC 9144. Type of assay: cell-based, Staphylococcus aureus. The following applies: ATCC 9144, 18 h. As for the experimental part:
as §1

In the next assay the test system is S. aureus ATCC 25923. Type of assay: cell-based, Staphylococcus aureus. The settings on record: ATCC 25923, 18 h. As for the experimental part:
as §1

Assay [3] relates to S. aureus ATCC 33591 (MRSA). Format: cell-based, Staphylococcus aureus. The settings on record: ATCC 33591, 18 h. On the procedure:
as §1

Assay [4] deals with S. aureus ATCC 25923 biofilm. Format: cell-based, Staphylococcus aureus. The following applies: ATCC 25923, 24 h. As for the experimental part: (§2) The MBECs values were determined according to the method reported previously. Briefly, 24-h cultures of S. aureus, namely: S. aureus ATCC 25923, S. aureus ATCC 6538, S. aureus ATCC 33591 (MRSA), S. aureus ATCC 9144 and S. aureus ATCC 12598 were diluted to a concentration of 0.5 × 10^7 CFU/mL and added to the test wells of polystyrene microdilution flat-bottom plates. After 24-h of incubation at 37 °C, the wells were rinsed three times with PBS to remove non-adherent cells. Subsequently, 100 μL of the test compounds over a concentration range 0.5–256 µg/mL were added to each well and incubated again for 24 h at 37 °C. After this period, 20 μL of the resazurin (7-hydroxy-3H-phenoxazin-3-one-10-oxide, 4 mg/mL) solution was added to each well. After 1 h of incubation, the MBECs were read out. The determined values were recorded as the lowest concentration at which the reduction of resazurin (from blue to pink) was lower or equal to 10 ± 0.5% as compared to the positive (100%) and negative (0%) controls. All experiments were performed in triplicate.

Assay [5] has as its system S. aureus ATCC 6538 biofilm. Type of assay: cell-based, Staphylococcus aureus. The settings on record: ATCC 6538, 24 h. As for the experimental part:
as §2

The test system of assay [6] is S. aureus ATCC 33591 (MRSA) biofilm. Format: cell-based, Staphylococcus aureus. The following applies: ATCC 33591, 24 h. As for the experimental part:
as §2

Assay [7] has as its system S. aureus ATCC 9144 biofilm. Type of assay: cell-based, Staphylococcus aureus. The following applies: ATCC 9144, 24 h. On the procedure:
as §2

Assay [8] relates to S. aureus ATCC 12598 biofilm. Type of assay: cell-based, Staphylococcus aureus. The settings on record: ATCC 12598, 24 h. On the procedure: as §2
Assay [9] concerns reference strains of S. aureus. Type of assay: cell-based, Staphylococcus aureus. The following applies: reference strains of, 24 h. As for the experimental part: as §1, with “For this purpose, initial inoculums of bacteria (0.5 × 10^5 colony forming unit (CFU)/mL) in Mueller–Hinton Broth were exposed to the ranging concentrations of compounds (0.5–256 µg/mL) and incubated for 18 h at 37 °C.” left out

For the next assay, the system named is K. aerogenes ATCC 13048. Format: cell-based, Klebsiella aerogenes. The settings on record: ATCC 13048, 18 h. On the procedure: as §1
Another assay concerns E. faecium ATCC 700221. Format: cell-based, Enterococcus faecium. The settings on record: ATCC 700221, 18 h. As for the experimental part:
as §1

The subject of assay [10] is K. pneumoniae ATCC 700603. Type of assay: cell-based, Klebsiella pneumoniae. The following applies: ATCC 700603, 18 h. As for the experimental part:
as §1

Converted amounts (≈) assume the structure as drawn. Ends that are not written are not given here. Peptide text beside a SMILES is read from it. * marks the point of attachment. Lauroyl = CCCCCCCCCCCC(=O)*; Hexanoyl = CCCCCC(=O)*; Butyryl = CCCC(=O)* Where only a bound is given, the exact number is not on record here.

Here are results for four compounds from publication PMC7036753, “Lipidated Analogs of the LL-37-Derived Peptide Fragment KR12—Structural Analysis, Surface-Active Properties and Antimicrobial Activity” (International Journal of Molecular Sciences, 2020).

The IC50 is the concentration needed to halve the response being measured. A low value points to greater potency. As usually defined, the MIC is the lowest concentration that inhibits growth of the organism. As for `CCCCCCCCCCCC(=O)N[C@@H](CCCCN)C(=O)N[C@@H](CCCNC(=N)N)C(=O)N[C@H](C(=O)N[C@H](C(=O)N[C@@H](CCC(N)=O)C(=O)N[C@@H](CCCNC(=N)N)C(=O)N[C@H](C(=O)N[C@@H](CCCCN)C(=O)N[C@@H](CC(=O)O)C(=O)N[C@@H](Cc1ccccc1)C(=O)N[C@@H](CC(C)C)C(=O)N[C@@H](CCCNC(=N)N)C(N)=O)[C@@H](C)CC)C(C)C)[C@@H](C)CC` [VI, C12-KR12-NH2] (Lauroyl-KRIVQRIKDFLR-NH2), in [1], the concentration for half-maximal inhibition (IC50) worked out at 7.60 µg/mL (≈ 4.33 µM). Also, the MIC stood at 16 µg/mL (≈ 9.13 µM) in assay [2]; 32 µg/mL (≈ 18.3 µM) with P. aeruginosa ATCC 9027; 32 µg/mL (≈ 18.3 µM) against S. aureus ATCC 12598; 32 µg/mL (≈ 18.3 µM) with S. aureus ATCC 6538; 32 µg/mL (≈ 18.3 µM) against S. aureus ATCC 9144; 32 µg/mL (≈ 18.3 µM) against S. aureus ATCC 25923. The MIC in assay [3] came out at 16 µg/mL (≈ 9.13 µM); in the assay on K. aerogenes ATCC 13048, 32 µg/mL (≈ 18.3 µM); in the assay with E. faecium ATCC 700221, 4 µg/mL (≈ 2.28 µM); in [10], 32 µg/mL (≈ 18.3 µM). In addition, the MBEC is on record as 256 µg/mL in [4]; 256 µg/mL in assay [5]; 128 µg/mL in assay [6]; 64 µg/mL in [7]; 32 µg/mL in [8]. In assay [9], the “GM (geometric mean of the MIC values against S. aureus)” value (“GM” for short) was 27.86 µg/mL.
In turn, `CCCCCC(=O)N[C@@H](CCCCN)C(=O)N[C@@H](CCCNC(=N)N)C(=O)N[C@H](C(=O)N[C@H](C(=O)N[C@@H](CCC(N)=O)C(=O)N[C@@H](CCCNC(=N)N)C(=O)N[C@H](C(=O)N[C@@H](CCCCN)C(=O)N[C@@H](CC(=O)O)C(=O)N[C@@H](Cc1ccccc1)C(=O)N[C@@H](CC(C)C)C(=O)N[C@@H](CCCNC(=N)N)C(N)=O)[C@@H](C)CC)C(C)C)[C@@H](C)CC` [III, C6-KR12-NH2] (Hexanoyl-KRIVQRIKDFLR-NH2) displayed an IC50 in [1] of 10.13 µg/mL (≈ 6.07 µM). Moreover, the MIC in [2] stood at 16 µg/mL (≈ 9.59 µM); with P. aeruginosa ATCC 9027 it was 8 µg/mL (≈ 4.79 µM); against S. aureus ATCC 12598, 8 µg/mL (≈ 4.79 µM); in the assay with S. aureus ATCC 6538 it was 4 µg/mL (≈ 2.4 µM); with S. aureus ATCC 9144 it was 8 µg/mL (≈ 4.79 µM); in the assay on S. aureus ATCC 25923, 16 µg/mL (≈ 9.59 µM). Also, the MIC in assay [3] was determined as 16 µg/mL (≈ 9.59 µM); in the assay on K. aerogenes ATCC 13048, 16 µg/mL (≈ 9.59 µM); against E. faecium ATCC 700221 it was 2 µg/mL (≈ 1.2 µM); in assay [10], 16 µg/mL (≈ 9.59 µM). The MBEC in assay [4] is listed as 32 µg/mL; in assay [5] it was 16 µg/mL; in [6] it was 16 µg/mL; in [7] it was 16 µg/mL; in assay [8], 16 µg/mL. For the same compound, in [9], the “GM” value is 9.19 µg/mL.
As for KRIVQRIKDFLR-NH2 [X, KRIVQRIKDFLR-NH2], the IC50 in assay [1] came out at 74.60 µg/mL. Besides, the MIC in [2] is 256 µg/mL; in the assay with P. aeruginosa ATCC 9027, 16 µg/mL; with S. aureus ATCC 12598, >256 µg/mL; in the assay with S. aureus ATCC 6538, 256 µg/mL; with S. aureus ATCC 9144, >256 µg/mL; with S. aureus ATCC 25923 it was >256 µg/mL. The MIC is reported as >256 µg/mL in [3], >256 µg/mL in the assay on K. aerogenes ATCC 13048, 8 µg/mL in the assay with E. faecium ATCC 700221 and >256 µg/mL in assay [10]. In addition, the MBEC in assay [4], in assay [5], in assay [6], in assay [7] and in assay [8] was >256 µg/mL each time. For the same compound, the “GM” value in assay [9] was >256.00 µg/mL.
On to `CCCC(=O)N[C@@H](CCCCN)C(=O)N[C@@H](CCCNC(=N)N)C(=O)N[C@H](C(=O)N[C@H](C(=O)N[C@@H](CCC(N)=O)C(=O)N[C@@H](CCCNC(=N)N)C(=O)N[C@H](C(=O)N[C@@H](CCCCN)C(=O)N[C@@H](CC(=O)O)C(=O)N[C@@H](Cc1ccccc1)C(=O)N[C@@H](CC(C)C)C(=O)N[C@@H](CCCNC(=N)N)C(N)=O)[C@@H](C)CC)C(C)C)[C@@H](C)CC` [II, C4-KR12-NH2] (Butyryl-KRIVQRIKDFLR-NH2), for which, in [1], the IC50 was 38.73 µg/mL (≈ 23.6 µM). In addition, the MIC is >256 µg/mL in assay [2]; 32 µg/mL (≈ 19.5 µM) in the assay with P. aeruginosa ATCC 9027; 64 µg/mL (≈ 39 µM) in the assay on S. aureus ATCC 12598; 32 µg/mL (≈ 19.5 µM) against S. aureus ATCC 6538; 64 µg/mL (≈ 39 µM) in the assay with S. aureus ATCC 9144; 128 µg/mL (≈ 78 µM) with S. aureus ATCC 25923. For the same compound, the MIC in [3] was found to be 128 µg/mL (≈ 78 µM); against K. aerogenes ATCC 13048, 128 µg/mL (≈ 78 µM); in the assay with E. faecium ATCC 700221, 4 µg/mL (≈ 2.44 µM); in assay [10] it was 128 µg/mL (≈ 78 µM). Also, the MBEC in assay [4] was found to be 256 µg/mL; in assay [5], 128 µg/mL; in [6], 128 µg/mL; in assay [7], 128 µg/mL; in assay [8], 128 µg/mL. The “GM” value in [9] is 73.52 µg/mL.
